Where a name gives a salt, the structure may show the parent alone.
Key:
rat FAAH = target: T1, rat FAAH (Rattus norvegicus, UniProt P97612); assay: Assay Method 2: FAAH assay, 3H-anandamide hydrolysis in homogenate of SK-N-MC cells transfected with rat FAAH; type: biochemical; conditions: average of results, > = solubility limit or highest concentration tested
T1 sequence (P97612 1-579): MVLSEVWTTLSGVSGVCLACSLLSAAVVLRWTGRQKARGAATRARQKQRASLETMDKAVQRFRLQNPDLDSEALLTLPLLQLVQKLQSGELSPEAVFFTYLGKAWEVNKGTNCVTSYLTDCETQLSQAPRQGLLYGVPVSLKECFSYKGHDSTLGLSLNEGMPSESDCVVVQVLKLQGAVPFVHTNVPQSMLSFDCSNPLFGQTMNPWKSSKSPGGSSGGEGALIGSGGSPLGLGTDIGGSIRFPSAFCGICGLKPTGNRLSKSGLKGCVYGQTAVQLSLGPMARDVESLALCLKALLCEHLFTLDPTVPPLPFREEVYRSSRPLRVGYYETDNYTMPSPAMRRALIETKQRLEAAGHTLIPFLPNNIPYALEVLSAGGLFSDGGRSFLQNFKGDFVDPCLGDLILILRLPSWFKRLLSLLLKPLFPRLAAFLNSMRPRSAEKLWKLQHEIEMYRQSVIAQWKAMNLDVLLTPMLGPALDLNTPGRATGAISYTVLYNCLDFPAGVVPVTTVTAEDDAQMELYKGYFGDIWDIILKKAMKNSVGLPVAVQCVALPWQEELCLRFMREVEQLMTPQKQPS
Protocol: A. Transfection of Cells with Rat FAAH
(§1) A 10-cm tissue culture dish with a confluent monolayer of SK—N-MC cells was split 2 days (d) prior to transfection. Using sterile technique, the media was removed and the cells were detached from the dish by the addition of trypsin. One fifth of the cells were then placed onto a new 10-cm dish. Cells were grown in a 37° C. incubator with 5% CO2 in Minimal Essential Media Eagle with 10% Fetal Bovine Serum. After 2 d, cells were approximately 80% confluent. These cells were removed from the dish with trypsin and pelleted in a clinical centrifuge. The pellet was re-suspended in 400 μL complete media and transferred to an electroporation cuvette with a 0.4 cm gap between the electrodes. Supercoiled rat FAAH cDNA (1 μg) was added to the cells and mixed. The voltage for the electroporation was set at 0.25 kV, and the capacitance was set at 960 μF. After electroporation, the cells were diluted into complete media (10 mL) and plated onto four 10-cm dishes. Because of the variability in the efficiency of electroporation, four different concentrations of cells were plated. The ratios used were 1:20, 1:10, and 1:5, with the remainder of the cells being added to the fourth dish. The cells were allowed to recover for 24 h before adding the selection media (complete media with 600 μg/mL G418). After 10 d, dishes were analyzed for surviving colonies of cells. Dishes with well-isolated colonies were used. Cells from individual colonies were isolated and tested.
(§2) T84 frozen cell pellets or transfected SK—N-MC cells (contents of 1×15 cm culture dishes) were homogenized in 50 mL of FAAH assay buffer (125 mM Tris, 1 mM EDTA, 0.2% Glycerol, 0.02% Triton X-100, 0.4 mM Hepes, pH 9). The assay mixture consisted of 50 μL of the cell homogenate, 10 μL of the test compound, and 40 μL of anandamide [1-^3H-ethanolamine] (^3H-AEA, Perkin-Elmer, 10.3 Ci/mmol), which was added last, for a final tracer concentration of 80 nM. The reaction mixture was incubated at rt for 1 h. During the incubation, 96-well Multiscreen filter plates (catalog number MAFCNOB50; Millipore, Bedford, Mass., USA) were loaded with 25 μL of activated charcoal (Multiscreen column loader, catalog number MACL09625, Millipore) and washed once with 100 μL of MeOH. Also during the incubation, 96-well DYNEX MicroLite plates (catalog number NL510410) were loaded with 100 μL of MicroScint40 (catalog number 6013641, Packard Bioscience, Meriden, Conn., USA). After the 1 h incubation, 60 μL of the reaction mixture were transferred to the charcoal plates, which were then assembled on top of the DYNEX plates using Centrifuge Alignment Frames (catalog number MACF09604, Millipore). The unbound labeled ethanolamine was centrifuged through to the bottom plate (5 min at 2000 rpm), which was preloaded with the scintillant, as described above. The plates were sealed and left at rt for 1 h before counting on a Hewlett Packard TopCount.
(§3) Compounds were tested in free base, hydrochloride salt, and/or trifluoroacetic acid salt forms.

FAAH = target: T2, FAAH (Homo sapiens, UniProt O00519); assay: Assay Method 1: FAAH assay, 3H-anandamide hydrolysis in homogenate of T84 cells or SK-N-MC cells transfected with human FAAH; type: biochemical; conditions: average of results, > = solubility limit or highest concentration tested
T2 sequence (O00519 1-579): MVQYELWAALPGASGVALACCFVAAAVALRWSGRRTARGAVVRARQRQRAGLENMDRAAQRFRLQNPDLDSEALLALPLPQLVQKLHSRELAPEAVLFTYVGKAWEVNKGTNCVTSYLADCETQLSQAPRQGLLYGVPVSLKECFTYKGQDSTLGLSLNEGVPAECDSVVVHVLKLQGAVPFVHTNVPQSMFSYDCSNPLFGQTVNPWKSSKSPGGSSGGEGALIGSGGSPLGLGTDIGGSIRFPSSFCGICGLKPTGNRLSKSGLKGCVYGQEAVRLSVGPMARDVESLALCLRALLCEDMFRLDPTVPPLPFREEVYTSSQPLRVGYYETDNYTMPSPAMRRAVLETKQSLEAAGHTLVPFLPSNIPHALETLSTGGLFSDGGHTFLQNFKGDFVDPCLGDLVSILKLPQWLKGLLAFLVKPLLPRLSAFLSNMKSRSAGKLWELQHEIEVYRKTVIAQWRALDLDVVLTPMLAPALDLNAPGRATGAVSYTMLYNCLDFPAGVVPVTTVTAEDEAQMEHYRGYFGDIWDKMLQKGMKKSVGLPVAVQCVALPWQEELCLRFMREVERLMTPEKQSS
Protocol: A. Transfection of Cells with Human FAAH
as §1, with “Supercoiled human” for “Supercoiled rat”
as §2, §3

O=C(Nc1noc2ccccc12)N1CCN(Cc2cccc(Oc3ccc(F)c(C(F)(F)F)c3)c2)CC1 [Example 28, 4-[3-(4-Fluoro-3-trifluoromethyl-phenoxy)-benzyl]-piperazine-1-carboxylic acid benzo[d]isoxazol-3-ylamide trifluoroacetic acid salt] gave an IC50 (rat FAAH) of 17 nM and an IC50 (FAAH) of 95 nM.

Compound O=C(Nc1noc2ccccc12)N1CCN(Cc2cccc(Oc3cccc(OC(F)(F)F)c3)c2)CC1 [Example 29, 4-[3-(3-Trifluoromethoxy-phenoxy)-benzyl]-piperazine-1-carboxylic acid benzo[d]isoxazol-3-ylamide trifluoroacetic acid salt] has an IC50 (rat FAAH) of 23 nM and an IC50 (FAAH) of 16 nM.

Work on O=C(Nc1noc2ccccc12)N1CCN(Cc2cccc(Oc3ccc(OC(F)(F)F)cc3)c2)CC1 [Example 30, 4-[3-(4-Trifluoromethoxy-phenoxy)-benzyl]-piperazine-1-carboxylic acid benzo[d]isoxazol-3-ylamide trifluoroacetic acid salt] yielded an IC50 (rat FAAH) of 14 nM and an IC50 (FAAH) of 0.1 nM.

Compound O=C(Nc1noc2ccccc12)N1CCN(Cc2cccc(Oc3cccc(Br)c3)c2)CC1 [Example 31, 4-[3-(3-Bromo-phenoxy)-benzyl]-piperazine-1-carboxylic acid benzo[d]isoxazol-3-ylamide trifluoroacetic acid salt] has an IC50 (rat FAAH) of 17 nM and an IC50 (FAAH) of 22 nM.

Compound O=C(Nc1noc2ccccc12)N1CCN(Cc2cccc(Oc3ccc(Br)cc3)c2)CC1 [Example 32, 4-[3-(4-Bromo-phenoxy)-benzyl]-piperazine-1-carboxylic acid benzo[d]isoxazol-3-ylamide trifluoroacetic acid salt] has an IC50 (rat FAAH) of 4 nM and an IC50 (FAAH) of 3 nM.

Work on O=C(Nc1noc2ccccc12)N1CCN(Cc2cccc(Oc3ccc(F)c(F)c3)c2)CC1 [Example 33, 4-[3-(3,4-Difluoro-phenoxy)-benzyl]-piperazine-1-carboxylic acid benzo[d]isoxazol-3-ylamide] yielded an IC50 (rat FAAH) of 30 nM and an IC50 (FAAH) of 52 nM.

Compound O=C(Nc1noc2ccccc12)N1CCN(Cc2cccc(Oc3cc(F)cc(F)c3)c2)CC1 [Example 34, 4-[3-(3,5-Difluoro-phenoxy)-benzyl]-piperazine-1-carboxylic acid benzo[d]isoxazol-3-ylamide trifluoroacetic acid salt] has an IC50 (rat FAAH) of 190 nM and an IC50 (FAAH) of 152 nM.

Work on O=C(Nc1noc2ccccc12)N1CCN(Cc2cccc(Oc3ccc(OCC(F)(F)F)cc3)c2)CC1 [Example 35, 4-{3-[4-(2,2,2-Trifluoro-ethoxy)-phenoxy]-benzyl}-piperazine-1-carboxylic acid benzo[d]isoxazol-3-ylamide] yielded an IC50 (rat FAAH) of 20 nM and an IC50 (FAAH) of 5 nM.

O=C(Nc1cccc2nsnc12)N1CCN(Cc2cccc(Oc3ccc(Cl)c(Cl)c3)c2)CC1 [Example 38, 4-[3-(3,4-Dichloro-phenoxy)-benzyl]-piperazine-1-carboxylic acid benzo[1,2,5]thiadiazol-4-ylamide trifluoroacetic acid salt] was tested, and the IC50 (rat FAAH) was 9 nM and the IC50 (FAAH) was 70 nM.

In the case of O=C(Nc1cccc2nsnc12)N1CCN(Cc2cccc(Oc3cc(Cl)cc(Cl)c3)c2)CC1 [Example 39, 4-[3-(3,5-Dichloro-phenoxy)-benzyl]-piperazine-1-carboxylic acid benzo[1,2,5]thiadiazol-4-ylamide trifluoroacetic acid salt], the IC50 (rat FAAH) is reported as 573 nM and the IC50 (FAAH) is reported as 310 nM.

Compound O=C(Nc1cccc2nsnc12)N1CCN(Cc2cccc(Oc3cccc(C(F)(F)F)c3)c2)CC1 [Example 40, 4-[3-(3-Trifluoromethyl-phenoxy)-benzyl]-piperazine-1-carboxylic acid benzo[1,2,5]thiadiazol-4-ylamide trifluoroacetic acid salt] has an IC50 (rat FAAH) of 15 nM and an IC50 (FAAH) of 156 nM.

O=C(Nc1cccc2nsnc12)N1CCN(Cc2cccc(OC(F)(F)F)c2)CC1 [Example 41, 4-(3-Trifluoromethoxy-benzyl)-piperazine-1-carboxylic acid benzo[1,2,5]thiadiazol-4-ylamide trifluoroacetic acid salt] showed an IC50 (rat FAAH) of 141 nM and an IC50 (FAAH) of 48 nM.

Work on O=C(Nc1ccc(Cl)nn1)N1CCN(Cc2cccc(Oc3ccc(Cl)cc3)c2)CC1 [Example 42, 4-[3-(4-Chloro-phenoxy)-benzyl]-piperazine-1-carboxylic acid (6-chloro-pyridazin-3-yl)-amide trifluoroacetic acid salt] yielded an IC50 (rat FAAH) of 18 nM and an IC50 (FAAH) of 311 nM.

For O=C(Nc1ccc(Cl)nn1)N1CCN(Cc2cccc(Oc3ccc(Cl)c(Cl)c3)c2)CC1 [Example 43, 4-[3-(3,4-Dichloro-phenoxy)-benzyl]-piperazine-1-carboxylic acid (6-chloro-pyridazin-3-yl)-amide trifluoroacetic acid salt], the IC50 (rat FAAH) was 6 nM and the IC50 (FAAH) was 983 nM.

With O=C(Nc1ccc(Cl)nn1)N1CCN(Cc2cccc(Oc3cccc(C(F)(F)F)c3)c2)CC1 [Example 44, 4-[3-(3-Trifluoromethyl-phenoxy)-benzyl]-piperazine-1-carboxylic acid (6-chloro-pyridazin-3-yl)-amide trifluoroacetic acid salt] the IC50 (rat FAAH) was 46 nM and the IC50 (FAAH) was 643 nM.

Compound O=C(Nc1ccc(Cl)nn1)N1CCN(Cc2ccc(F)c(Oc3ccccc3)c2)CC1 [Example 45, 4-(4-Fluoro-3-phenoxy-benzyl)-piperazine-1-carboxylic acid (6-chloro-pyridazin-3-yl)-amide trifluoroacetic acid salt] has an IC50 (rat FAAH) of 410 nM and an IC50 (FAAH) of 1500 nM.

From patent US20090062294A1, “HETEROARYL-SUBSTITUTED UREA MODULATORS OF FATTY ACID AMIDE HYDROLASE” (priority 2007, published 2009)
